Reference: BindingDB's records for doi:10.1111/cbdd.12793 (Nanjing University, 2016)

molecular target: Tyrosine--tRNA ligase (Staphylococcus aureus (strain MSSA476), UniProt Q6G8J9); assay: In vitro Enzyme Inhibition Assay; details: pH 7.9
Protocol: The assays were conducted at 37 °C in a mixture containing 100 mM Tris/Cl pH 7.9, 50 mM KCl, 16 mM MgCl2, 5 mM ATP, 3 mM DTT, 4 mg/ml E. coli MRE600 tRNA (Roche) and 10 μM L-tyrosine (0.3 μM L-[ring-3,5-3H] tyrosine (PerkinElmer, Specific activity: 1.48-2.22 TBq/mmol), 10 μM carrier). Above all, TyrRS (0.2 nM) was pre-incubated with kinds of concentrations inhibitor for 10 min (RT) followed by the addition of pre-warmed mixture and moved them together to 37 °C. After specific intervals, the reaction was ended by the addition of aliquots of the reaction mix into gelid 7% trichloroacetic acid and harvested onto […] hydrophilic Durapore filters (Millipore Multiscreen 96-well plates) and counted by liquid scintillation.

| IC50 [µM] | SMILES |
| --- | --- |
| 53.1 | Cc1ncc([N+](=O)[O-])n1CCOC(=O)c1cc(-c2ccc(Cl)cc2)n(-c2ccc(Cl)cc2)n1 [2-(2-Methyl-5-nitro-1H-imidazol-1-yl)-ethyl-1,5-bis(4-chlorophenyl)-1H-pyrazole-3-carboxylate (4n)] |
| 63.1 | Cc1ncc([N+](=O)[O-])n1CCOC(=O)c1cc(-c2ccccc2)n(-c2ccccc2)n1 [2-(2-Methyl-5-nitro-1H-imidazol-1-yl)-ethyl-1,5-diphenyl-1H-pyrazole-3-carboxylate (4r)] |
| 16.5 | Cc1ncc([N+](=O)[O-])n1CCOC(=O)c1cc(-c2ccccc2)n(-c2ccc(Cl)cc2)n1 [2-(2-Methyl-5-nitro-1H-imidazol-1-yl)-ethyl-1-(4-chlorophenyl)-5-phenyl-1H-pyrazole-3-carboxylate (4s)] |
| 76.2 | Cc1ncc([N+](=O)[O-])n1CCOC(=O)c1cc(-c2ccccc2F)n(-c2ccc(Cl)cc2)n1 [2-(2-Methyl-5-nitro-1H-imidazol-1-yl)-ethyl-1-(4-chlorophenyl)-5-(2-fluorophenyl)-1H-pyrazole-3-carboxylate (4u)] |
| 56 | Cc1ccc(-n2nc(C(=O)OCCn3c([N+](=O)[O-])cnc3C)cc2-c2ccc(F)cc2)cc1 [2-(2-Methyl-5-nitro-1H-imidazol-1-yl)-ethyl-5-(4-fluorophenyl)-1-(p-tolyl)-1H-pyrazole-3-carboxylate (4c)] |
| 5.11 | Cc1ccccc1-c1cc(C(=O)OCCn2c([N+](=O)[O-])cnc2C)nn1-c1ccc(Cl)cc1 [2-(2-Methyl-5-nitro-1H-imidazol-1-yl)-ethyl-1-(4-chlorophenyl)-5-(o-tolyl)-1H-pyrazole-3-carboxylate (4q)] |
| 60.1 | Cc1ncc([N+](=O)[O-])n1CCOC(=O)c1cc(-c2cccc(F)c2)n(-c2ccc(Cl)cc2)n1 [2-(2-Methyl-5-nitro-1H-imidazol-1-yl)-ethyl-1-(4-chlorophenyl)-5-(3-fluorophenyl)-1H-pyrazole-3-carboxylate (4y)] |
| 10.8 | COc1ccc(-c2cc(C(=O)OCCn3c([N+](=O)[O-])cnc3C)nn2-c2ccc(C)cc2)cc1 [2-(2-Methyl-5-nitro-1H-imidazol-1-yl)-ethyl-5-(4-methoxyphenyl)-1-(p-tolyl)-1H-pyrazole-3-carboxylate (4a)] |
| 36.7 | Cc1ncc([N+](=O)[O-])n1CCOC(=O)c1cc(-c2ccc(I)cc2)n(-c2ccccc2)n1 [2-(2-Methyl-5-nitro-1H-imidazol-1-yl)-ethyl-5-(4-iodophenyl)-1-phenyl-1H-pyrazole-3-carboxylate (4j)] |
| 21.6 | Cc1cccc(-c2cc(C(=O)OCCn3c([N+](=O)[O-])cnc3C)nn2-c2ccccc2)c1 [2-(2-Methyl-5-nitro-1H-imidazol-1-yl)-ethyl-1-phenyl-5-(m-tolyl)-1H-pyrazole-3-carboxylate (4v)] |
| 18.1 | Cc1ccc(-c2cc(C(=O)OCCn3c([N+](=O)[O-])cnc3C)nn2-c2ccc(Cl)cc2)cc1 [2-(2-Methyl-5-nitro-1H-imidazol-1-yl)-ethyl-1-(4-chlorophenyl)-5-(p-tolyl)-1H-pyrazole-3-carboxylate (4l)] |
| 64.4 | Cc1ncc([N+](=O)[O-])n1CCOC(=O)c1cc(-c2ccc(F)cc2)n(-c2ccc(Cl)cc2)n1 [2-(2-Methyl-5-nitro-1H-imidazol-1-yl)-ethyl-1-(4-chlorophenyl)-5-(4-fluorophenyl)-1H-pyrazole-3-carboxylate (4m)] |
| 40.5 | Cc1ccc(-n2nc(C(=O)OCCn3c([N+](=O)[O-])cnc3C)cc2-c2ccc(I)cc2)cc1 [2-(2-Methyl-5-nitro-1H-imidazol-1-yl)-ethyl-5-(4-iodophenyl)-1-(p-tolyl)-1H-pyrazole-3-carboxylate (4e)] |
| 70 | Cc1ncc([N+](=O)[O-])n1CCOC(=O)c1cc(-c2ccc(F)cc2)n(-c2ccccc2)n1 [2-(2-Methyl-5-nitro-1H-imidazol-1-yl)-ethyl-5-(4-fluorophenyl)-1-phenyl-1H-pyrazole-3-carboxylate (4h)] |
| 47.8 | Cc1ccc(-n2nc(C(=O)OCCn3c([N+](=O)[O-])cnc3C)cc2-c2ccc(Cl)cc2)cc1 [2-(2-Methyl-5-nitro-1H-imidazol-1-yl)-ethyl-5-(4-chlorophenyl)-1-(p-tolyl)-1H-pyrazole-3-carboxylate (4d)] |
| 60.8 | Cc1ccc(-c2cc(C(=O)OCCn3c([N+](=O)[O-])cnc3C)nn2-c2ccccc2)cc1 [2-(2-Methyl-5-nitro-1H-imidazol-1-yl)-ethyl-1-phenyl-5-(p-tolyl)-1H-pyrazole-3-carboxylate (4g)] |
| 84.1 | Cc1ncc([N+](=O)[O-])n1CCOC(=O)c1cc(-c2cccc(F)c2)n(-c2ccccc2)n1 [2-(2-Methyl-5-nitro-1H-imidazol-1-yl)-ethyl-5-(3-fluorophenyl)-1-phenyl-1H-pyrazole-3-carboxylate (4x)] |
| 31.9 | Cc1ccc(-c2cc(C(=O)OCCn3c([N+](=O)[O-])cnc3C)nn2-c2ccc(C)cc2)cc1 [2-(2-Methyl-5-nitro-1H-imidazol-1-yl)-ethyl-1,5-di-p-tolyl-1H-pyrazole-3-carboxylate (4b)] |
| 13.3 | Cc1ncc([N+](=O)[O-])n1CCOC(=O)c1cc(-c2ccc(I)cc2)n(-c2ccc(Cl)cc2)n1 [2-(2-Methyl-5-nitro-1H-imidazol-1-yl)-ethyl-1-(4-chlorophenyl)-5-(4-iodophenyl)-1H-pyrazole-3-carboxylate (4o)] |
| 95.4 | Cc1ncc([N+](=O)[O-])n1CCOC(=O)c1cc(-c2ccccc2F)n(-c2ccccc2)n1 [2-(2-Methyl-5-nitro-1H-imidazol-1-yl)-ethyl-5-(2-fluorophenyl)-1-phenyl-1H-pyrazole-3-carboxylate (4t)] |
| 0.92 | COc1ccc(-c2cc(C(=O)OCCn3c([N+](=O)[O-])cnc3C)nn2-c2ccccc2)cc1 [2-(2-Methyl-5-nitro-1H-imidazol-1-yl)-ethyl-5-(4-methoxyphenyl)-1-phenyl-1H-pyrazole-3-carboxylate (4f)] |
| 1.67 | COc1ccc(-c2cc(C(=O)OCCn3c([N+](=O)[O-])cnc3C)nn2-c2ccc(Cl)cc2)cc1 [2-(2-Methyl-5-nitro-1H-imidazol-1-yl)-ethyl-1-(4-chlorophenyl)-5-(4-methoxyphenyl)-1H-pyrazole-3-carboxylate (4k)] |
| 21.2 | Cc1ncc([N+](=O)[O-])n1CCOC(=O)c1cc(-c2ccc(Cl)cc2)n(-c2ccccc2)n1 [2-(2-Methyl-5-nitro-1H-imidazol-1-yl)-ethyl-5-(4-chlorophenyl)-1-phenyl-1H-pyrazole-3-carboxylate (4i)] |
| 29.2 | Cc1cccc(-c2cc(C(=O)OCCn3c([N+](=O)[O-])cnc3C)nn2-c2ccc(Cl)cc2)c1 [2-(2-Methyl-5-nitro-1H-imidazol-1-yl)-ethyl-1-(4-chlorophenyl)-5-(m-tolyl)-1H-pyrazole-3-carboxylate (4w)] |
| 4.55 | Cc1ccccc1-c1cc(C(=O)OCCn2c([N+](=O)[O-])cnc2C)nn1-c1ccccc1 [2-(2-Methyl-5-nitro-1H-imidazol-1-yl)-ethyl-1-phenyl-5-(o-tolyl)-1H-pyrazole-3-carboxylate (4p)] |
